Assay results: US10582715B2, “Powder flavour composition” (Givaudan S.A., priority 2012, dated 2020)

Key:
[1] = Tasting of snack product (fried potato base, 35% fat, cheese seasoning) with added compound
From the text: A snack product consisting of a fried potato base, containing 35% fat and flavored with cheese seasoning containing salt, MSG, dairy, organic acids, sugars, and a flavour formulation.

[2] = Tasting of air expanded base (3% fat, cheese seasoning) with added compound
From the text: An air expanded base (Rice, wheat, Tapioca, potato, salt, sugar, modified starch), containing 3% fat and flavored with cheese seasoning containing salt, MSG, dairy, organic acids, sugars and flavor.

[3] = Mango flavoured still beverage containing different levels of juice, evaluated by expert tasters
Procedure: In a Mango flavoured still beverage, sweetened with 8% sucrose and containing 0.1% citric acid and 1%, 4% and 6% clear mango juice flavoured with a proprietary Mango flavour @ 0.05% , C18:2-gaba and C18:2-Pro were added, as such (separate) and in combination.
All samples were evaluated by expert tasters. Tasters were asked to describe the samples focusing on authentic taste, juicy mouthfeel, enhancement, richness, juiciness, long lastingness, salivation, sweetness.
In a Mango flavoured still beverage, sweetened with 8% sucrose & containing 0.1% citric acid and 1% clear mango juice flavoured with proprietary Mango flavour @ 0.05%, C18:2-gaba and C18:2-Pro were added, as such (separate) and in combination.
Base is water, 8% sucrose, 0.1% citric acid, 1% clear mango juice (very low juice %), flavoured with Mango flavor, dosed at 0.05%
Base: sweet, fruity, mango, thin
In a Mango flavoured still beverage, sweetened with 8% sucrose & containing 0.1% citric acid and 4% clear mango juice flavoured with Mango flavour @ 0.05% , C18:2-gaba and C18:2-Pro were added, as such (separate) and in combination.
Base is water, 8% sucrose, 0.1% citric acid, 4% clear mango juice (30% reduced juice), flavoured with Mango flavor, dosed at 0.05%
Base: sweet, fruity, mango, some low mouthfeel
In a Mango-flavoured still beverage, sweetened with 8% sucrose & containing 0.1% citric acid and 6% clear mango juice flavoured with Mango flavour @ 0.05%, C18:2-gaba and C18:2-Pro were added, as such (separate) and in combination.
Base is water, 8% sucrose, 0.1% citric acid, 6% clear mango juice (full juice), flavoured with Mango flavor, dosed at 0.05%.
Base: Sweet, fruity mango, full mouthfeel

[4] = Test on orange flavoured Tang powdered soft drink, evaluated by expert tasters
Procedure: In an orange flavoured Tang powdered soft drink (market product) sweetened with sucrose plus high intensity sweetener and containing citric acid, C18:2-gaba and C18:2-pro were tested.
All samples were evaluated by expert tasters. Tasters were asked to describe the samples focusing on authentic taste, mouthfeel & body, enhancement, richness, juiciness, long lastingness, salivation, sweetness, masking off notes of high intensity sweetener
Base is Orange Flavoured Tang
Base: sweet, orange, licorice, and lingering high intensity sweetener offnotes, bitter, thin

[5] = Test in 3 in 1 Coffee beverage, evaluated by expert tasters; conditions: sucrose 13.2%, creamer 2.1% fat, compound at 1 ppm, base: coffee, sweet, mild dairy
Procedure: In a 3 in 1 Coffee beverage from Nestle (market product) sweetened with sucrose 13.2% and containing creamer (2.1% fat) C18:2-gaba was added.
Samples were evaluated by expert tasters. Tasters were asked to describe the samples focusing on authentic taste, mouthfeel, fullness, salivation, sweetness, juiciness, richness, long lastingness and fattiness.
Base is 3-in-1 Coffee Beverage (Market Product) Sweetened with Sucrose and Containing Creamer with Fat
Base: coffee, sweet, mild dairy

Structure (SMILES): CCCCCCCC/C=C\CCCCCCCC(=O)N[C@@H](CCSC)C(=O)O [C18:1 met]
- tasting results ([1]; compound at 0.25 ppm): Salty, aged cheese, succulent
- tasting results ([1]; compound at 0.5 ppm): Increased cheese, creamy, salty and succulent

Structure (SMILES): CCCCCCCC/C=C\CCCCCCCC(=O)NC1(C(=O)O)CC1 [C18:1-ACCA, N-oleoyl 1-amino-cyclopropyl carboxylic acid]
- tasting results ([2]; compound at 0.5 ppm): Increased salty
- tasting results ([2]; compound at 1 ppm): Increased Umami, salty
- tasting results ([1]; compound at 0.5 ppm): Increased salty
- tasting results ([1]; compound at 1 ppm): Increased Umami, salty

Structure (SMILES): CCCCC/C=C\C/C=C\CCCCCCCC(=O)N1CCC[C@H]1C(=O)O [C18:2-Pro]
- taste description by expert tasters ([3]; 1% clear mango juice, compound at 0.5 ppm): more sweet, sugar-like, very juicy and long lasting sweet, salivating
- taste description by expert tasters ([3]; 4% clear mango juice, compound at 0.5 ppm): more sweet, sugar-like, very juicy and long lasting sweet, salivating
- taste description by expert tasters ([3]; 6% clear mango juice (full juice), compound at 0.5 ppm): more sweet, sugar-like, very juicy and long lasting sweet, salivating, syrupy
- masking off notes of high intensity sweetener ([4]; compound at 1 ppm): the off-notes of the high intensity sweetener were suppressed
- taste description by expert tasters ([4]; compound at 1 ppm): very fresh, enhances sweet juicy orange notes, characteristic of authentic fresh orange fruit

Structure (SMILES): CCCCC/C=C\C/C=C\CCCCCCCC(=O)NCCCC(=O)O [C18:2-gaba]
- taste description by expert tasters ([3]; 1% clear mango juice, compound at 1 ppm): fatty skin-like, very juicy, authentic mango, much more mouthfeel, long lasting mango taste, mouthfeel is close to the full juice product
- taste description by expert tasters ([3]; 4% clear mango juice, compound at 1 ppm): fatty skin-like, very juicy, authentic mango, long lasting mango taste, more mouthfeel than the full juice product
- taste description by expert tasters ([3]; 6% clear mango juice (full juice), compound at 1 ppm): fatty skin-like, very thick juicy, authentic mango, long lasting mango taste, rich
- tasting results ([2]; compound at 0.5 ppm): Increased dairy, cheese
- tasting results ([2]; compound at 1 ppm): Fatty full, cheesy, cheese crust, long lasting, cover base
- tasting results ([1]; compound at 0.5 ppm): increased dairy, cheesy
- tasting results ([1]; compound at 1 ppm): Fatty full, cheesy, cheese crust, long lasting
- taste description by expert tasters [5]: very nice mouthfeel effect, creamy as if coffee creamer is added, more sweet
- masking off notes of high intensity sweetener ([4]; compound at 0.5 ppm): the off-notes of the high intensity sweetener were suppressed
- taste description by expert tasters ([4]; compound at 0.5 ppm): enhances sweet juicy orange notes, enhanced mouthfeel
